Data: ChEMBL document CHEMBL3585297, “New amide derivatives of Probenecid as selective inhibitors of carbonic anhydrase IX and XII: biological evaluation and molecular modelling studies” (Bioorg Med Chem, 2015)

Tests used:
Carbonic anhydrase 2 = Carbonic anhydrase 2 (Homo sapiens, UniProt P00918); experiment: Inhibition of human carbonic anhydrase 2 by stopped-flow CO2 hydrase assay
Carbonic anhydrase 1 = Carbonic anhydrase 1 (Homo sapiens, UniProt P00915); experiment: Inhibition of human carbonic anhydrase 1 by stopped-flow CO2 hydrase assay
Carbonic anhydrase 1, sequence (P00915 whole entry): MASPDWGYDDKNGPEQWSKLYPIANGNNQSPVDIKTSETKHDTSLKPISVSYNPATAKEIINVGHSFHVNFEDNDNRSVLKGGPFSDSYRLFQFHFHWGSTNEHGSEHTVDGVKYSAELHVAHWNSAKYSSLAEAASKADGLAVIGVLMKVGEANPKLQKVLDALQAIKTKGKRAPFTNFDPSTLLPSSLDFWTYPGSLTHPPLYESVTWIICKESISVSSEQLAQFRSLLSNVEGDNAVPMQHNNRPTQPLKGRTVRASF

Carbonic anhydrase 9 = Carbonic anhydrase 9 (Homo sapiens, UniProt Q16790); experiment: Inhibition of human carbonic anhydrase 9 by stopped-flow CO2 hydrase assay

In the case of `CCCN(CCC)S(=O)(=O)c1ccc(C(=O)NCCCN2CCOCC2)cc1`, the Ki (Carbonic anhydrase 2) is reported as > 10 µM, the Ki (Carbonic anhydrase 1) is reported as > 10 µM and the Ki (Carbonic anhydrase 9) is reported as 0.213 µM.
With `CCCN(CCC)S(=O)(=O)c1ccc(C(=O)NCCN2CCCCC2)cc1` the Ki (Carbonic anhydrase 2) was > 10 µM, the Ki (Carbonic anhydrase 1) was > 10 µM and the Ki (Carbonic anhydrase 9) was 1.26 µM.
For `CCCN(CCC)S(=O)(=O)c1ccc(C(=O)Nc2ccccn2)cc1`, the Ki (Carbonic anhydrase 2) was > 10 µM and the Ki (Carbonic anhydrase 9) was 0.199 µM.
`CCCN(CCC)S(=O)(=O)c1ccc(C(=O)NC2CCC(C)CC2)cc1` (centres undefined) was tested, and the Ki (Carbonic anhydrase 2) was > 10 µM, the Ki (Carbonic anhydrase 1) was > 10 µM and the Ki (Carbonic anhydrase 9) was 2.02 µM.
`CCCN(CCC)S(=O)(=O)c1ccc(C(=O)Nc2ccccc2Cl)cc1` was tested, and the Ki (Carbonic anhydrase 2) was > 10 µM, the Ki (Carbonic anhydrase 1) was > 10 µM and the Ki (Carbonic anhydrase 9) was 0.0236 µM.
`CCCN(CCC)S(=O)(=O)c1ccc(C(=O)Nc2ccccc2C)cc1` was tested, and the Ki (Carbonic anhydrase 2) was > 10 µM, the Ki (Carbonic anhydrase 1) was > 10 µM and the Ki (Carbonic anhydrase 9) was 0.0613 µM.
With `CCCN(CCC)S(=O)(=O)c1ccc(C(=O)Nc2ccncc2)cc1` the Ki (Carbonic anhydrase 2) was > 10 µM, the Ki (Carbonic anhydrase 1) was > 10 µM and the Ki (Carbonic anhydrase 9) was 2.04 µM.
With `CCCN(CCC)S(=O)(=O)c1ccc(C(=O)NCc2ccccc2)cc1` the Ki (Carbonic anhydrase 2) was > 10 µM, the Ki (Carbonic anhydrase 1) was > 10 µM and the Ki (Carbonic anhydrase 9) was 0.0206 µM.
For `CCCN(CCC)S(=O)(=O)c1ccc(C(=O)Nc2ccc([N+](=O)[O-])cc2)cc1`, the Ki (Carbonic anhydrase 2) was > 10 µM, the Ki (Carbonic anhydrase 1) was > 10 µM and the Ki (Carbonic anhydrase 9) was 0.246 µM.
With `CCCN(CCC)S(=O)(=O)c1ccc(C(=O)NC2CCCC(C)C2)cc1` (centres undefined) the Ki (Carbonic anhydrase 2) was > 10 µM, the Ki (Carbonic anhydrase 1) was > 10 µM and the Ki (Carbonic anhydrase 9) was 0.188 µM.
With `CCCN(CCC)S(=O)(=O)c1ccc(C(=O)NCC)cc1` the Ki (Carbonic anhydrase 2) was > 10 µM and the Ki (Carbonic anhydrase 1) was > 10 µM.
With `CCCN(CCC)S(=O)(=O)c1ccc(C(=O)NCCN(CC)CC)cc1` the Ki (Carbonic anhydrase 2) was > 10 µM, the Ki (Carbonic anhydrase 1) was > 10 µM and the Ki (Carbonic anhydrase 9) was 0.11 µM.
